The source of these data is ChEMBL document CHEMBL4190397, “Design and Synthesis of Novel and Selective Glycine Transporter-1 (GlyT1) Inhibitors with Memory Enhancing Properties” (J Med Chem, 2018).

Series [1] addresses T1, Sodium- and chloride-dependent glycine transporter 1 (Homo sapiens, UniProt P48067).
T1 sequence (P48067 whole entry): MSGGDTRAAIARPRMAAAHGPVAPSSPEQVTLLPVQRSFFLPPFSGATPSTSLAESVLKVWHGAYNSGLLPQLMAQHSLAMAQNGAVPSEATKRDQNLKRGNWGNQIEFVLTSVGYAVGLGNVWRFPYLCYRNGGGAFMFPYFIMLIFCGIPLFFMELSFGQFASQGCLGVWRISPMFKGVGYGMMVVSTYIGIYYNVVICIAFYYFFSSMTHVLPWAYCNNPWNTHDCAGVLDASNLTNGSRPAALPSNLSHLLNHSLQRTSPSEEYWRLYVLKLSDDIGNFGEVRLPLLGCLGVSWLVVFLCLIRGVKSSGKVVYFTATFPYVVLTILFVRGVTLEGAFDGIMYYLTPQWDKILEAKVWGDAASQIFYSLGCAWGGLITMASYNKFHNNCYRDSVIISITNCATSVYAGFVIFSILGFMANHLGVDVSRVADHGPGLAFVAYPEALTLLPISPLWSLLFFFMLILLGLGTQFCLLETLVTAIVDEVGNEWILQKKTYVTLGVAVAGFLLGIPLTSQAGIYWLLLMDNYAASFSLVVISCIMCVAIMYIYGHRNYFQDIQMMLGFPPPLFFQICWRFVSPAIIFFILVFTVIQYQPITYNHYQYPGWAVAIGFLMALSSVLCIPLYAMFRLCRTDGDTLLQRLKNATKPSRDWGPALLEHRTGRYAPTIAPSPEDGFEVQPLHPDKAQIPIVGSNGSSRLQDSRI
Briefly: Inhibition of recombinant human GlyT1c expressed in HEK293 cells assessed as reduction in [14C]glycine uptake after 2 hrs by microbeta scintillation counting method. Format: cell-based.

Series [2] has as its target T2, Sodium- and chloride-dependent glycine transporter 2 (Homo sapiens, UniProt Q9Y345).
T2 sequence (Q9Y345 whole entry): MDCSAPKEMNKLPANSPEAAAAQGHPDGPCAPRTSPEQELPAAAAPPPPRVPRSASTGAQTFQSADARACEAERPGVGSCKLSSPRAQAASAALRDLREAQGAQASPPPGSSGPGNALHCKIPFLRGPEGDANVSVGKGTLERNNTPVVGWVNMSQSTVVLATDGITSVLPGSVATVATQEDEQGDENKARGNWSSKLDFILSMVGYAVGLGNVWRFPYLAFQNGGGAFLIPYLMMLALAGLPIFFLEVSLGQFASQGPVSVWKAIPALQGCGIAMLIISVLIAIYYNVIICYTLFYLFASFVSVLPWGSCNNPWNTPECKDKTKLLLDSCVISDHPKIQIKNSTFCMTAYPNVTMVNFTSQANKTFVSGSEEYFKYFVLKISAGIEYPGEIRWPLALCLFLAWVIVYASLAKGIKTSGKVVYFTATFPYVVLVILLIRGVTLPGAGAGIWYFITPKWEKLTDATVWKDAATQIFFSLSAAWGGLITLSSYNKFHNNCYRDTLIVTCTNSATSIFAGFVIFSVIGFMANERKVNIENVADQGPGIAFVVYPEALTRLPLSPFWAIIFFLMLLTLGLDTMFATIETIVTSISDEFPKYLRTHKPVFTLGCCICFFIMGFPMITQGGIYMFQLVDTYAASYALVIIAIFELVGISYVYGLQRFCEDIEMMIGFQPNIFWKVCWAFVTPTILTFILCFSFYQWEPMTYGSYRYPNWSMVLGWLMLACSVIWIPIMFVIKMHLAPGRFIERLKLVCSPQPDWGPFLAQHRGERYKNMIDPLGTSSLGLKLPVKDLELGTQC
Briefly: Inhibition of recombinant human GlyT2 expressed in HEK293 cells assessed as reduction in [14C]glycine uptake after 2 hrs by microbeta scintillation counting method. The series is classed as cell-based.

For another series, the target named is T3, Cytochrome P450 1A2 (Homo sapiens, UniProt P05177).
T3 sequence (P05177 whole entry): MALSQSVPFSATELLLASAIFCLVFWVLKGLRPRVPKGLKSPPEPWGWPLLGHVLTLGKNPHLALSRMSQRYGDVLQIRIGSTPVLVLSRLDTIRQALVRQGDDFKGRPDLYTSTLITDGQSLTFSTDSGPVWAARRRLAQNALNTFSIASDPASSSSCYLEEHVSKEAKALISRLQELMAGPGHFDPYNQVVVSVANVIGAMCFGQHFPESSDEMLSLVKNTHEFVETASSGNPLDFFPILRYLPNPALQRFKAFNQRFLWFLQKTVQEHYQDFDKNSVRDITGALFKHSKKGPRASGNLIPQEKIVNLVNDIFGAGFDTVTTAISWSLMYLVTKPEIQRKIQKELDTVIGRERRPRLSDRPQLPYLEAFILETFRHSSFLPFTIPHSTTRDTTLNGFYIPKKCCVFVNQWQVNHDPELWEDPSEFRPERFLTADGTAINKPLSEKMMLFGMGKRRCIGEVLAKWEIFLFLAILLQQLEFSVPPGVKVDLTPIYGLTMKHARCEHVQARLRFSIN
Briefly: Inhibition of CYP1A2 in human liver microsomes using phenacetin as substrate measured after 10 mins in presence of NADPH by LC-MS/MS analysis. On the technique in general: Liver microsomes are vesicles of endoplasmic reticulum, rich in cytochrome P450 enzymes.

Series [3] is described as follows: Intrinsic clearance in rat liver microsomes at 1 uM assessed per mg protein at 37 degC up to 30 mins in presence of NADPH by HPLC-MS analysis. The series is classed as ADME, microsome. The conditions noted are these: read-out: CLH.
The target in series [4] is T4, Sodium- and chloride-dependent glycine transporter 1 (Rattus norvegicus, UniProt P28572).
T4 sequence (P28572 whole entry): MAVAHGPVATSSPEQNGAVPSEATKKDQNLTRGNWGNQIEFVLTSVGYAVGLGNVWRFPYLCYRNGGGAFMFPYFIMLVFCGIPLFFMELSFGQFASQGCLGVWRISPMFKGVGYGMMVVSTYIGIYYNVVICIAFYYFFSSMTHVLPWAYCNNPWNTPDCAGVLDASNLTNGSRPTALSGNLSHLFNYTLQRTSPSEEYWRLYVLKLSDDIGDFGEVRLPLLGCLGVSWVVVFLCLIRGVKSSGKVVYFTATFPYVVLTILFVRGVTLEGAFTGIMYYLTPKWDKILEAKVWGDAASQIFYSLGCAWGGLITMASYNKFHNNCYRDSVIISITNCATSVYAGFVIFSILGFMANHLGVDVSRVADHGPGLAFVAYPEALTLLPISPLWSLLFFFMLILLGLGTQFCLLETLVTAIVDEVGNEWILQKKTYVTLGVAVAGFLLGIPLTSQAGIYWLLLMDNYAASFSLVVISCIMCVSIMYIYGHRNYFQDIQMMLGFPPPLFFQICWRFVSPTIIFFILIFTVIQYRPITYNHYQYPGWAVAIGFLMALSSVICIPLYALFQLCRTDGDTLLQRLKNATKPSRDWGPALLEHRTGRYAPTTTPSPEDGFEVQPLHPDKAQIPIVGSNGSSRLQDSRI
Briefly: Inhibition of GlyT1 in primary rat cortical neurons assessed as reduction in [14C]glycine uptake after 2 hrs by microbeta scintillation counting method.

The target of the next series is Cytochrome P450 2C9 (Homo sapiens, UniProt P11712). Briefly: Inhibition of CYP2C9 in human liver microsomes using diclofenac as substrate measured after 10 mins in presence of NADPH by LC-MS/MS analysis.

Each structure is given as a SMILES string.

Chain of Cytochrome P450 2C9 (P11712 whole entry): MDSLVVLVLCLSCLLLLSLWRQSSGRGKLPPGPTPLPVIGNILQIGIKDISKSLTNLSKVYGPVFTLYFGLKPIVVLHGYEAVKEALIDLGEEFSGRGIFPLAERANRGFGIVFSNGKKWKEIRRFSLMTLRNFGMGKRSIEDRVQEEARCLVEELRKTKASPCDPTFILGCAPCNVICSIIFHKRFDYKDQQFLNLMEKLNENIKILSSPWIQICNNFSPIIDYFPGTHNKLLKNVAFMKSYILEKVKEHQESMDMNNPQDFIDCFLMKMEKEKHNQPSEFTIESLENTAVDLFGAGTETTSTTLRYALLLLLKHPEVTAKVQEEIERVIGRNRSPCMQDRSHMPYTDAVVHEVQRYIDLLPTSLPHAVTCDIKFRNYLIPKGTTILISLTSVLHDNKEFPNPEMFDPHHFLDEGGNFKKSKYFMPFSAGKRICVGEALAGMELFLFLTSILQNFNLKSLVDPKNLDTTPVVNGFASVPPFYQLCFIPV

In general, IC50 refers to the concentration at which inhibition is half-maximal. In the case of `C[C@H](Oc1ccc(C#N)cc1C(=O)N1Cc2cn(-c3ccccc3F)nc2C1)C(F)(F)F`, the IC50 is 78 nM in series [1]; > 10000 nM in series [2]; > 10000 nM at Cytochrome P450 1A2; 108 nM in series [4]; > 10000 nM at Cytochrome P450 2C9. In series [3], the microsomal CLint at 1 µM turned out to be 451 µL/min/mg.

Regarding `CS(=O)(=O)c1ccc(OCC2CC2)c(C(=O)N2Cc3cn(-c4ccccc4F)nc3C2)c1`, the IC50 is 38 nM in series [1]; > 10000 nM in series [2]; > 10000 nM at Cytochrome P450 1A2; 28 nM in series [4]; > 10000 nM at Cytochrome P450 2C9. Moreover, in series [3], the microsomal CLint at 1 µM came out at 5.3 µL/min/mg.
